Tested on: Leiomyosarcoma tumour cell line SK-UT-1B
Test: Test 1: inhibition of the proliferation of cultivated human tumour cells (14C-thymidine incorporation), SK-UT-1B
Type: cell-based
Conditions: Homo sapiens, Skut1B; in vitro Test 1; SK-UT-1B cells; 48 hours' incubation, then 14C-thymidine for a further 24 hours; IC50 of inhibition of incorporated 14C-thymidine; read-out: Inhibition of SKUT-1B proliferation
Description: Inhibition of the Proliferation of Cultivated Human Tumour Cells
Cells of the Leiomyosarcoma tumour cell line SK-UT-1B or non-small-cell lung tumour cell line NCI-H460 (obtained from the American Type Culture Collection (ATCC)) were cultivated in Minimum Essential Medium with non-essential amino acids (Gibco), supplemented with sodium pyruvate (1 mMol), glutamine (2 mMol) and 10% foetal calf serum (Gibco) or RPMI1640 Medium (Gibco) and 10% foetal calf serum (Gibco) and harvested in the logarithmic growth phase. Then the SK-UT-1B cells were placed in Cytostar® multi-well plates (Amersham) at a density of 4000 cells per well or 3000 cells per well for NCI-H460 cells and incubated overnight in an incubator. Various concentrations of the compounds (dissolved in DMSO; final concentration: 0.1%) were added to the cells. After 48 hours' incubation, ^14C-thymidine (Amersham) was added to each well and incubation was continued for a further 24 hours. The quantity of ^14C-thymidine which was incorporated into the tumour cells in the presence of the inhibitor and which represents the number of cells in the S phase was measured in a Wallace 1450 Microbeta Liquid Scintillation Counter. IC50 values for the inhibition of the proliferation (=inhibition of incorporated ^14C-thymidine) were calculated, correcting for the background radiation. All the measurements were done twice.
The following Table contains the results obtained with the in vitro Test 1 (++ denotes <0.01 μM, + denotes 0.01–1.0 μM): […]

Row | SMILES | IC50
1 | CC(=O)N(C)c1ccc(N/C(=C2\C(=O)Nc3ccc(NS(=O)(=O)c4ccccc4)cc32)c2ccccc2)cc1 [Example 20, (Z)-3-{1-[4-(N-methyl-N-acetyl-amino)-phenylamino]-1-phenyl-methylidene}-5-phenylsulphonylamino-2-indolinone] | 0.01 to 1 µM
2 | O=C1Nc2ccc(NS(=O)(=O)c3ccccc3)cc2/C1=C(/Nc1ccccc1)c1ccccc1 [Example 22, (Z)-3-(1-phenylamino-1-phenyl-methylidene)-5-phenylsulphonylamino-2-indolinone] | 0.01 to 1 µM
3 | O=C1Nc2ccc(NS(=O)(=O)c3ccccc3)cc2/C1=C(/Nc1ccc(Cl)cc1)c1ccccc1 [Example 23, (Z)-3-[1-(4-chlorophenylamino)-1-phenyl-methylidene]-5-phenylsulphonylamino-2-indolinone] | 0.01 to 1 µM
4 | CN(C(=O)CN1CCCCC1)c1ccc(N/C(=C2\C(=O)Nc3ccc(NS(=O)(=O)c4ccccc4)cc32)c2ccccc2)cc1 [Example 56, (Z)-3-[1-(4-(N-methyl-N-piperidinomethylcarbonyl-amino)-phenylamino)-1-phenyl-methylidene]-5-phenylsulphonylamino-2-indolinone] | < 0.01 µM
5 | CCS(=O)(=O)Nc1ccc2c(c1)/C(=C(/Nc1ccc(CCN(C)C)cc1)c1ccccc1)C(=O)N2 [Example 72, (Z)-3-{1-[4-(2-dimethylamino-ethyl)-phenylamino]-1-phenyl-methylidene}-5-ethylsulphonylamino-2-indolinone] | 0.01 to 1 µM
6 | O=C1Nc2ccc(NS(=O)(=O)c3cccnc3)cc2/C1=C(/Nc1ccc(CN2CCCC2)cc1)c1ccccc1 [Example 80, (Z)-3-{1-[4-(pyrrolidin-1-ylmethyl)-phenylamino]-1-phenyl-methylidene}-5-(pyridin-3-ylsulphonylamino)-2-indolinone] | < 0.01 µM
7 | O=C1Nc2ccc(NS(=O)(=O)c3cccnc3)cc2/C1=C(/Nc1ccc(C(=O)N2CCCC2)cc1)c1ccccc1 [Example 88, (Z)-3-{1-[4-(pyrrolidin-1-ylcarbonyl)-phenylamino]-1-phenyl-methylidene}-5-(pyridin-3-ylsulphonylamino)-2-indolinone] | 0.01 to 1 µM
8 | CCS(=O)(=O)Nc1ccc2c(c1)/C(=C(/Nc1ccc(CN3CCCCC3)cc1)c1ccccc1)C(=O)N2 [Example 99, (Z)-3-{1-[4-(piperidinomethyl)-phenylamino]-1-phenyl-methylidene}-5-ethylsulphonylamino-2-indolinone] | < 0.01 µM
9 | O=C1Nc2ccc(NS(=O)(=O)c3cccc4ccccc34)cc2/C1=C(/Nc1ccc(CN2CCCCC2)cc1)c1ccccc1 [Example 104, (Z)-3-{1-[4-(piperidinomethyl)-phenylamino]-1-phenyl-methylidene}-5-(naphthalin-1-ylsulphonylamino)-2-indolinone] | < 0.01 µM
10 | O=C1Nc2ccc(NS(=O)(=O)c3cccc([N+](=O)[O-])c3)cc2/C1=C(/Nc1ccc(CN2CCCCC2)cc1)c1ccccc1 [Example 112, (Z)-3-{1-[4-(piperidinomethyl)-phenylamino]-1-phenyl-methylidene}-5-(3-nitrophenylsulphonylamino)-2-indolinone] | < 0.01 µM
11 | O=C1Nc2ccc(NS(=O)(=O)C3CC3)cc2/C1=C(/Nc1ccc(CN2CCCCC2)cc1)c1ccccc1 [Example 120, (Z)-3-{1-[4-(piperidinomethyl)-phenylamino]-1-phenyl-methylidene}-5-cyclopropylsulphonylamino-2-indolinone] | < 0.01 µM
12 | O=C1Nc2ccc(NS(=O)(=O)C3CC3)cc2/C1=C(/Nc1ccc(CN2CCCC2)cc1)c1ccccc1 [Example 142, (Z)-3-{1-[4-(pyrrolidin-1-ylmethyl)-phenylamino]-1-phenyl-methylidene}-5-cyclopropylsulphonylamino-2-indolinone] | 0.01 to 1 µM
13 | CCS(=O)(=O)Nc1ccc2c(c1)/C(=C(/Nc1ccc(CN3CCCC3)cc1)c1ccccc1)C(=O)N2 [Example 144, (Z)-3-{1-[4-(pyrrolidin-1-ylmethyl)-phenylamino]-1-phenyl-methylidene}-5-ethylsulphonylamino-2-indolinone] | 0.01 to 1 µM

Now from value to compound:

Row | IC50 | SMILES
14 | 0.01 to 1 µM | CS(=O)(=O)N(CCN)c1ccc(N/C(=C2\C(=O)Nc3ccc(NS(=O)(=O)c4ccccc4)cc32)c2ccccc2)cc1 [Example 2, (Z)-3-{1-[4-(N-(2-aminoethyl)-N-methylsulphonyl-amino)-phenylamino]-1-phenyl-methylidene}-5-phenylsulphonylamino-2-indolinone]
15 | < 0.01 µM | CN(C)CCN(c1ccc(N/C(=C2\C(=O)Nc3ccc(NS(=O)(=O)c4ccccc4)cc32)c2ccccc2)cc1)S(=O)(=O)c1ccccc1 [Example 4, (Z)-3-{1-[4-(N-(2-dimethylaminoethyl)-N-phenylsulphonyl-amino)-phenylamino)-1-phenyl-methylidene}-5-phenylsulphonylamino-2-indolinone]
16 | 0.01 to 1 µM | CN1CCN(Cc2ccc(N/C(=C3\C(=O)Nc4ccc(NS(=O)(=O)c5ccccc5)cc43)c3ccccc3)cc2)CC1 [Example 9, (Z)-3-{1-[4-(4-methylpiperazinomethyl)-phenylamino]-1-phenyl-methylidene}-5-phenylsulphonylamino-2-indolinone]
17 | 0.01 to 1 µM | O=C1Nc2ccc(NS(=O)(=O)c3ccccc3)cc2/C1=C(/Nc1ccc(CN2CCCC2)cc1)c1ccccc1 [Example 12, (Z)-3-{1-[4-(pyrrolidin-1-ylmethyl)-phenylamino]-1-phenyl-methylidene}-5-phenylsulphonylamino-2-indolinone]
18 | < 0.01 µM | CCC(=O)NCCN(C(=O)CC)c1ccc(N/C(=C2\C(=O)Nc3ccc(NS(=O)(=O)c4ccccc4)cc32)c2ccccc2)cc1 [Example 31, (Z)-3-{1-[4-(N-(2-propionylamino-ethyl)-N-propionyl-amino)-phenylamino]-1-phenyl-methylidene}-5-phenylsulphonylamino-2-indolinone]
19 | 0.01 to 1 µM | CN(c1ccc(N/C(=C2\C(=O)Nc3ccc(NS(=O)(=O)c4ccccc4)cc32)c2ccccc2)cc1)S(C)(=O)=O [Example 42, (Z)-3-[1-(4-(N-methyl-N-methylsulphonyl-amino)-phenylamino)-1-phenyl-methylidene]-5-phenylsulphonylamino-2-indolinone]
20 | 0.01 to 1 µM | O=C1Nc2ccc(NS(=O)(=O)Cc3ccccc3)cc2/C1=C(/Nc1ccc(CN2CCCC2)cc1)c1ccccc1 [Example 58, (Z)-3-{1-[4-(pyrrolidin-1-ylmethyl)-phenylamino]-1-phenyl-methylidene}-5-benzylsulphonylamino-2-indolinone]
21 | < 0.01 µM | CC1CCCC(C)N1Cc1ccc(N/C(=C2\C(=O)Nc3ccc(NS(=O)(=O)c4cccc([N+](=O)[O-])c4)cc32)c2ccccc2)cc1 (stereo not shown) [Example 66, (Z)-3-{1-[4-((2,6-dimethylpiperidino)-methyl)-phenylamino]-1-phenyl-methylidene}-5-(3-nitrophenylsulphonylamino)-2-indolinone]
22 | 0.01 to 1 µM | CCS(=O)(=O)Nc1ccc2c(c1)/C(=C(/Nc1ccc(CN(C)C)cc1)c1ccccc1)C(=O)N2 [Example 70, (Z)-3-{1-[4-dimethylaminomethyl-phenylamino]-1-phenyl-methylidene}-5-ethylsulphonylamino-2-indolinone]
23 | 0.01 to 1 µM | CCS(=O)(=O)Nc1ccc2c(c1)/C(=C(/Nc1ccc(CN(C)Cc3ccccc3)cc1)c1ccccc1)C(=O)N2 [Example 71, (Z)-3-{1-[4-(N-benzyl-N-methyl-aminomethyl)-phenylamino]-1-phenyl-methylidene}-5-ethylsulphonylamino-2-indolinone]
24 | < 0.01 µM | CC(C)S(=O)(=O)Nc1ccc2c(c1)/C(=C(/Nc1ccc(CN3CCCCC3)cc1)c1ccccc1)C(=O)N2 [Example 101, (Z)-3-{1-[4-(piperidinomethyl)-phenylamino]-1-phenyl-methylidene}-5-isopropylsulphonylamino-2-indolinone]
25 | 0.01 to 1 µM | Cc1noc(C)c1S(=O)(=O)Nc1ccc2c(c1)/C(=C(/Nc1ccc(CN3CCCCC3)cc1)c1ccccc1)C(=O)N2 [Example 117, (Z)-3-{1-[4-(piperidinomethyl)-phenylamino]-1-phenyl-methylidene}-5-(3,5-dimethylisoxazol-4-ylsulphonylamino)-2-indolinone]
26 | < 0.01 µM | O=C1Nc2ccc(N(c3cccnc3)S(=O)(=O)c3ccccc3)cc2/C1=C(/Nc1ccc(CN2CCCCC2)cc1)c1ccccc1 [Example 134, (Z)-3-{1-[4-(piperidinomethyl)-phenylamino]-1-phenyl-methylidene}-5-(pyridin-3-ylphenylsulphonylamino)-2-indolinone]
27 | 0.01 to 1 µM | CCCS(=O)(=O)Nc1ccc2c(c1)/C(=C(/Nc1ccc(CN3CCCC3)cc1)c1ccccc1)C(=O)N2 [Example 143, (Z)-3-{1-[4-(pyrrolidin-1-ylmethyl)-phenylamino]-1-phenyl-methylidene}-5-propylsulphonylamino-2-indolinone]

Same assay, conditions: in vitro Test 1; SK-UT-1B cells; 48 hours' incubation, then 14C-thymidine for a further 24 hours; IC50 of inhibition of incorporated 14C-thymidine; read-out: Inhibition of SKUT-1B proliferation

Row | IC50 | SMILES
28 | < 0.01 µM | CN(C)Cc1ccc(N/C(=C2\C(=O)Nc3ccc(NS(=O)(=O)c4ccccc4)cc32)c2ccccc2)cc1 [Example 36, (Z)-3-[1-(4-dimethylaminomethyl-phenylamino)-1-phenyl-methylidene]-5-phenylsulphonylamino-2-indole]

From patent publication US7160901B2, “Substituted indolinones, preparation thereof and their use as pharmaceutical compositions” (Boehringer Ingelheim Pharma GmbH & Co. KG, priority 2000, dated 2007)
